Measured values as given in patent US20240199683A1, “ANDROGEN RECEPTOR MODULATORS” (priority 2021, published 2024).

Columns and labels:
human AR [1] = molecular target: T1, human AR (Homo sapiens, UniProt P10275); assay: human AR agonist assay (Indigo Biosciences); format: cell-based
T1 construct: purchased Indigo Biosciences
T1 sequence (P10275 1-920): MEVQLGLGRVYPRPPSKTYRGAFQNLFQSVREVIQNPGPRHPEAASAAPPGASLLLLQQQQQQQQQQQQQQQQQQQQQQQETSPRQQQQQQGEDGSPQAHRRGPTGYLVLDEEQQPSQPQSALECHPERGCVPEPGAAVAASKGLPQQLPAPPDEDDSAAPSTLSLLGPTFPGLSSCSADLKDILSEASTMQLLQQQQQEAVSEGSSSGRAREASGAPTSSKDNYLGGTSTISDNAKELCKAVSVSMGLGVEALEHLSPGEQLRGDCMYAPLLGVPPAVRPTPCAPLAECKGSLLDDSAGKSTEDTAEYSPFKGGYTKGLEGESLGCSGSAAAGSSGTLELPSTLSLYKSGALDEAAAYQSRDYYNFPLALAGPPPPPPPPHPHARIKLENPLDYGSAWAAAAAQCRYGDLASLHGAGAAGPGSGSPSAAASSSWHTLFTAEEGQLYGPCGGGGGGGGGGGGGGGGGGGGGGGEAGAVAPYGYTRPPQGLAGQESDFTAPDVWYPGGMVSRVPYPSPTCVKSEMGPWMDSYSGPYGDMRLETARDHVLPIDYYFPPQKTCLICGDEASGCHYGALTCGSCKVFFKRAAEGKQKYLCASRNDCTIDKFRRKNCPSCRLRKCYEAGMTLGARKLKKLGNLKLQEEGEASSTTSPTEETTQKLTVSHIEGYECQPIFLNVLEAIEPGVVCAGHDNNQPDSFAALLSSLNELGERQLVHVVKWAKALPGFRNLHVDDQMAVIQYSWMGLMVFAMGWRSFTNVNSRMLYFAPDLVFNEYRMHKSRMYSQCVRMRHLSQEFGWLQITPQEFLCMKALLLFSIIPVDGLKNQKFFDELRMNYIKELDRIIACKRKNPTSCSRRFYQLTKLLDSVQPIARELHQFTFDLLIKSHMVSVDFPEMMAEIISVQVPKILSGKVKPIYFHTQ
Source text: (§1) The activity of a compound can be determined using various known methods. For example, AR assays can be used. Such AR assays include binding assays using, for example, cells transfected with the human androgen receptor. Several cell based model systems that allow sensitive detection and monitoring of steroids or other compounds with AR bioactivity are known. Most cell based AR reporter models use transgenic gene constructs that include an androgen response element (ARE) that controls reporter gene (e.g., lucifersrase) expression. For example, a human AR Reporter Assay System is commercially available from Indigo Biosciecnes. The principle application of such an assay product is to quantify functional activities, either agonist or antagonist, that a compound may exert against the human androgen receptor. […] In addition, the anti-proliferative activity of a compound can be determined using various known methods, including in vitro and in vivo antiproliferative assays using cancer cell lines such as a prostate cancer cell line.
(§2) The activity of certain compounds were tested in a human AR agonist assay and a human AR antagonist assay (Indigo Biosciences).

human AR [2] = molecular target: T1, human AR; assay: human AR antagonist assay (Indigo Biosciences); format: cell-based
Source text: as §1, §2

androgen receptor = molecular target: T2, androgen receptor (Homo sapiens, UniProt P10275); assay: Ki of Table A (method not described; AR binding assays mentioned generally)
T2 sequence (P10275 1-920): T1 sequence (P10275 1-920)
Source text: as §1

[3] = Table A, values match the human AR antagonist assay

SMILES | EC50 (human AR [1]) | IC50 (human AR [2]; [3]) | HillSlope (human AR [2]; Table 4, antagonist mode) | Ki (androgen receptor) | IC50 (human AR [2]; Table 4, antagonist mode)
C[C@]12CC[C@@]3(C)C(=C1C[C@H](O)C2)CCC1=CC(=O)CC[C@@H]13 [Compound 103, (9R,10S,13R,16R)-16-hydroxy-9,13-dimethyl-1,2,6,7,9,10,11,12,13,15,16,17-dodecahydro-3H-cyclopenta[a]phenanthren-3-one] | 8950 µM |  |  |  | 
C[C@]12CC[C@@]3(C)C(=C1C[C@@H](O)C2)CC[C@H]1CC(=O)CC[C@@H]13 [Compound 106] |  | 1.8 µM |  |  | 
C[C@]12CC[C@@]3(C)C(=C1C[C@H](O)C2)CC[C@H]1CC(=O)CC[C@@H]13 [Compound 109] |  | 6.8 µM |  |  | 
C[C@]12CCC(=O)C=C1CCC1=C2CC[C@]2(C)C[C@H](O)[C@@H]3C[C@@]132 [Compound 201] |  | 0.218 µM | 1.375 | 1.4 µM | 
C[C@]12CCC3=C(CC[C@H]4CC(=O)CC[C@]34C)[C@@]13C[C@H]3[C@@H](O)C2 [Compound 202, (2S,2aR,3aR,5aS,9aS,11aR)-2-hydroxy-9a, 11a-dimethyl-1,2a,3,4,5a,6,8,9,9a,10,11,11a-dodecahydro-2H-cyclopropa[1,5]cyclopenta[1,2-a]phenanthren-7(5H)-one] |  | 0.061 µM | 1.360 | 0.837 µM | 0.0605 µM
C[C@]12CCC3=C(CC[C@@H]4CC(=O)CC[C@]34C)[C@@]13C[C@H]3[C@@H](O)C2 [Compound 203] |  | 1.18 µM | 1.202 |  | 1.18 µM
CC(C)(O)C(=O)Nc1ccc([N+](=O)[O-])c(C(F)(F)F)c1 [hydroxyflutamide, reference compound] |  |  | 1.282 |  | 
